Laboratory results reported in patent US20220227707A1, “COMPOUNDS AND COMPOSITIONS FOR TREATING CONDITIONS ASSOCIATED WITH NLRP ACTIVITY” (Novartis AG, priority 2019, published 2022).

Tested on: IL-1β production in PMA-differentiated THP-1 cells
Test: IL-1β production in PMA-differentiated THP-1 cells stimulated with gramicidin (hTHP-1 assay)
Type: cell-based, human
Protocol: Procedure 1: IL-1β Production in PMA-Differentiated THP-1 Cells Stimulated with Gramicidin
THP-1 cells were purchased from the American Type Culture Collection and sub-cultured according to instructions from the supplier. Cells were cultured in complete RPMI 1640 (containing 10% heat inactivated FBS, penicillin (100 units/ml) and streptomycin (100 μg/ml)), and maintained in log phase prior to experimental setup. Prior to the experiment, compounds were dissolved in dimethyl sulfoxide (DMSO) to generate a 30 mM stock. The compound stock was first pre-diluted in DMSO to 3, 0.34, 0.042 and 0.0083 mM intermediate concentrations and subsequently spotted using Echo550 liquid handler into an empty 384-well assay plate to achieve desired final concentration (e.g. 100, 33, 11, 3.7, 1.2, 0.41, 0.14, 0.046, 0.015, 0.0051, 0.0017 μM). DMSO was backfilled in the plate to achieve a final DMSO assay concentration of 0.37%. The plate was then sealed and stored at room temperature until required.
THP-1 cells were treated with PMA (Phorbol 12-myristate 13-acetate) (20 ng/ml) for 16-18 hours. On the day of the experiment the media was removed and adherent cells were detached with trypsin for 5 minutes. Cells were then harvested, washed with complete RPMI 1640, spun down, and resuspended in RPMI 1640 (containing 2% heat inactivated FBS, penicillin (100 units/ml) and streptomycin (100 μg/ml). The cells were plated in the 384-well assay plate containing the spotted compounds at a density of 50,000 cells/well (final assay volume 50 μl). Cells were incubated with compounds for 1 hour and then stimulated with gramicidin (5 μM) (Enzo) for 2 hours. Plates were then centrifuged at 340 g for 5 min. Cell free supernatant ([…]) was collected using a 96-channel PlateMaster (Gilson) and the production of IL-1β was evaluated by HTRF (cisbio). The plates were incubated for 18 h at 4° C. and read using the preset HTRF program (donor emission at 620 nm, acceptor emission at 668 nm) of the SpectraMax i3x spectrophotometer (Molecular Devices, software SoftMax 6). A vehicle only control and a dose titration of CRID3 (100-0.0017 μM) were run concurrently with each experiment.
Procedure 2: […] Production in PMA-Differentiated THP-1 Cells Stimulated with Gramicidin
THP-1 cells were purchased from the American Type Culture Collection and sub-cultured according to instructions from the supplier. Prior to experiments, cells were cultured in complete RPMI 1640 (containing 10% heat inactivated FBS, penicillin (100 units/ml) and streptomycin (100 μg/ml)), and maintained in log phase prior to experimental setup. Prior to the experiment THP-1 were treated with PMA (Phorbol 12-myristate 13-acetate) (20 ng/ml) for 16-18 hours. Compounds were dissolved in dimethyl sulfoxide (DMSO) to generate a 30 mM stock. On the day of the experiment the media was removed and adherent cells were detached with trypsin for 5 minutes. Cells were then harvested, washed with complete RPMI 1640, spun down, resuspended in RPMI 1640 (containing 2% heat inactivated FBS, penicillin (100 units/ml) and streptomycin (100 μg/ml). The cells were plated in a 384-well plate at a density of 50,000 cells/well (final assay volume 50 μl). Compounds were first dissolved in assay medium to obtain a 5× top concentration of 500 μM. 10 step dilutions (1:3) were then undertaken in assay medium containing 1.67% DMSO. 5× compound solutions were added to the culture medium to achieve desired final concentration (e.g. 100, 33, 11, 3.7, 1.2, 0.41, 0.14, 0.046, 0.015, 0.0051, 0.0017 μM). Final DMSO concentration was at 0.37%. Cells were incubated with compounds for 1 hour and then stimulated with gramicidin (5 μM) (Enzo) for 2 hours. Plates were then centrifuged at 340 g for 5 min. Cell free supernatant (40 μL) was collected using a 96-channel PlateMaster (Gilson) and the production of IL-1β was evaluated by HTRF (cisbio). A vehicle only control and a dose titration of CRID3 (100-0.0017 μM) were run concurrently with each experiment. […]

[1] = Average IC50, hTHP-1 assay containing 2% fetal bovine serum, Table 10, numeric values
[2] = Homo sapiens, THP-1, Average IC50, hTHP-1 assay containing 2% fetal bovine serum, Table 10, class symbols
[3] = Homo sapiens, THP-1, Average IC50, hTHP-1 assay containing 2% fetal bovine serum, Table 10, numeric values
[4] = Homo sapiens, THP-1, Average IC50, hTHP-1 assay containing 2% fetal bovine serum, Table 3B, class symbols

SMILES	IC50 [2] [µM]	IC50 [3] [µM]	also measured
CN1CCC(S(N)(=O)=NC(=O)Nc2c3c(cc4c2CCC4)CCC3)CC1 (stereo not drawn) [Compound 138]			IC50 [1]: > 30 µM
CC(=O)NS(C)(=O)=NC(=O)Nc1c2c(cc3c1CCC3)CCC2 (stereo not drawn) [Compound 111]	5 to 30		
CC(C)c1cc(F)cc(C(C)C)c1CC(=O)NS(=O)(=O)Cc1cccc(CN)c1 [Compound 508]		> 100	
NS(=O)(=NC(=O)Nc1c2c(cc3c1CCC3)CCC2)C1CCC1 (single isomer, unassigned) [Compound 146]			IC50 [1]: > 30 µM
CC(C)c1cccc(C(C)C)c1NC(=O)NS(=O)(=O)CC(O)c1ccsc1 (stereo not drawn) [Compound 402]	5 to 30		
CN(C)CCCS(N)(=O)=NC(=O)Nc1c2c(cc3c1CCC3)CCC2 (stereo not drawn) [Compound 141]	5 to 30		
COC(=O)CCCS(=O)(=O)NC(=O)Cc1c(C(C)C)cc(F)cc1C(C)C [Compound 513]		> 30	
CC(C)c1cc(F)cc(C(C)C)c1CC(=O)N=S(N)(=O)C1CCCC1 (stereo not drawn) [Compound 305]			IC50 [1]: > 30 µM
CN1CCC(S(N)(=O)=NC(=O)Nc2c3c(cc4c2CCC4)CCC3)C1 (single isomer, unassigned) [Compound 134, N′-((1,2,3,5,6,7-hexahydro-s-indacen-4-yl)carbamoyl)-1-methylpyrrolidine-3-sulfonimidamide]		> 30	
NS(=O)(=NC(=O)Nc1c2c(cc3c1CCC3)CCC2)C1Cc2ccccc2C1 (stereo not drawn) [Compound 139, N′-((1,2,3,5,6,7-hexahydro-s-indacen-4-yl)carbamoy1)-2,3-dihydro-1H-indene-2-sulfonimidamide]	5 to 30		
CN(C)CCCC(=O)NS(C)(=O)=NC(=O)Nc1c2c(cc3c1CCC3)CCC2 (single isomer, unassigned) [Compound 119, 4-(dimethylamino)-N—(N-((1,2,3,5,6,7-hexahydro-s-indacen-4-yl)carbamoyl)-S-methylsulfonimidoyl)butanamide]	5 to 30		
CN(C)S(C)(=O)=NC(=O)Nc1c2c(cc3c1CCC3)CCC2 (stereo not drawn) [Compound 107]		> 30	
CC(C)c1cc(F)cc(C(C)C)c1CC(=O)N=S(N)(=O)CCCN(C)C (stereo not drawn) [Compound 303]			IC50 [1]: > 30 µM
CC1(S(N)(=O)=NC(=O)Nc2c3c(cc4c2CCC4)CCC3)CC1 (stereo not drawn) [Compound 162]	0.2 to 1		
CC(C)c1cc(C#N)cc(C(C)C)c1CC(=O)NS(=O)(=O)N1CCCCC1 [Compound 201B, 2-(4-cyano-2,6-diisopropylphenyl)-N-(piperidin-1-ylsulfonyl)acetamide]			IC50 [4]: 5 to 30 µM
NS(=O)(=NC(=O)Nc1c2c(cc3c1CCC3)CCC2)C1CCCC1 (stereo not drawn) [Compound 153]	5 to 30		
COC(=O)CCS(=O)(=O)NC(=O)Cc1c2c(cc3c1CCC3)CCC2 [Compound 504]	1 to 5		

SMILES	IC50 [2] [µM]	IC50 [3] [µM]	also measured
COC(=O)CCS(=O)(=O)NC(=O)Cc1c(C(C)C)cc(F)cc1C(C)C [Compound 520, methyl 3-(N-(2-(4-fluoro-2,6-diisopropylphenyl)acetyl)sulfamoyl) propanoate]	1 to 5		
CC(CN(C)C)CS(N)(=O)=NC(=O)Nc1c2c(cc3c1CCC3)CCC2 (single isomer, unassigned) [Compound 122, 3-(dimethylamino)-N′-((1,2,3,5,6,7-hexahydro-s-indacen-4-yl)carbamoyl)-2-methylpropane-1-sulfonimidamide]	1 to 5		
CC(C)c1cc(F)cc(C(C)C)c1CC(=O)NS(=O)(=O)Cc1ccc(C(=O)O)cc1 [Compound 518]		> 100	
CC(C)c1cc(F)cc(C(C)C)c1CC(=O)NS(=O)(=O)Cc1ccc(C(C)(C)O)cc1 [Compound 506]	5 to 30		
NS(=O)(=NC(=O)Nc1c2c(cc3c1CCC3)CCC2)C1CCCC1 (stereo not drawn) [Compound 151]		> 30	
CC1(S(N)(=O)=NC(=O)Nc2c3c(cc4c2CCC4)CCC3)CC1 (stereo not drawn) [Compound 163]			IC50 [1]: > 30 µM
NS(=O)(=NC(=O)Nc1c2c(cc3c1CCC3)CCC2)C1CC1 (single isomer, unassigned) [Compound 154]	5 to 30		
CC(C)c1cc(F)cc(C(C)C)c1CC(=O)N=S(N)(=O)CCCN(C)C (stereo not drawn) [Compound 302]			IC50 [1]: > 30 µM
CC(C)c1cc(F)cc(C(C)C)c1CC(=O)NS(=O)(=O)CCCc1ccccc1 [Compound 509]		> 30	
CS(=O)(=NC(=O)Nc1c2c(cc3c1CCC3)CCC2)NC(=O)c1ccccc1 (stereo not drawn) [Compound 108]		> 30	
CN(C)S(N)(=O)=NC(=O)Nc1c2c(cc3c1CCC3)CCC2 (stereo not drawn) [Compound 101B, 3-[amino(dimethylamino)oxo-lambda6-sulfanylidene]-1-(1,2,3,5,6,7-hexahydro-s-indacen-4-yl)urea]			IC50 [4]: 5 to 30 µM
CN(C)CC1(S(N)(=O)=NC(=O)Nc2c3c(cc4c2CCC4)CCC3)CC1 (stereo not drawn) [Compound 159]			IC50 [1]: > 30 µM
CC(C)c1cc(F)cc(C(C)C)c1CC(=O)N=S(N)(=O)C1CC1 (stereo not drawn) [Compound 308]		> 30	
CC(C)c1cc(F)cc(C(C)C)c1CC(=O)NS(=O)(=O)CCC(=O)O [Compound 515]		> 100	
NS(=O)(=NC(=O)Nc1c2c(cc3c1CCC3)CCC2)C1CCCCC1 (stereo not drawn) [Compound 150]			IC50 [1]: > 30 µM
COC(=O)c1cccc(CS(=O)(=O)NC(=O)Cc2c(C(C)C)cc(F)cc2C(C)C)c1 [Compound 514]		> 100	
